Measurements published in patent US20210198633A1, “METHODS AND COMPOSITIONS COMPRISING TANKYRASE INHIBITORS FOR GENERATING INSULIN PRODUCING CELLS” (UNIVERSITY HEALTH NETWORK, priority 2018, published 2021).
“Also recorded” adds a separate entry of the source.

Tests used:
Assay type in all cases: cell-based, human
[1] = test system: H1 cell line; test: C-Peptide+/NKX6-1+ beta-like cells by flow cytometry at day 23; details: treatment day 8 to day 13: WIKI4 9 uM, G007-LK 5 uM, JW74 10 uM, JW55 5 uM
From the text: Flow cytometry analysis for C-Peptide (a surrogate for insulin) and NKX6.1 performed at day 23 of differentiation, showing high percentage of C-peptide+/NKX6-1+ cells (beta-like cells). Numbers in each quadrant indicate the relevant percentage of the total population. Results shown are from H1 cell line.
FIG. 7 show specific tankyrase inhibitors generate high percentages of beta-like cells as measured by C-peptide/NKX6-1 double positive cells using H1 cell line. […] Results shown are from H1 cell line. Error bars represent SEM. n=4 for all, n=1 for JW74.

[2] = test system: INS^GFP/W reporter line; test: INSULIN:GFP+ cells by fluorescence imaging and flow cytometric analysis after further differentiation; details: NE + IWR-1-endo 3 uM or WIKI4 9 uM day 8 to day 13; read day 21/23; compared with XAV939 1.5 uM and MN64 3 uM
Experimental: Cells treated with various tankyrase pathway inhibitors (Cell treated with NE alone or NE in combination with tankyras inhibitors (NE+XAV939 1.5 uM, NE+IWR-1-endo 3 uM, NE+MN64 3 uM, NE+WIKI4 9 uM)) between day 8 and day 13 of differentiation were differentiated for an additional 10 days using a modified version of the differentiation protocol developed by Rezania and Pagliuca (Rezania et al 2014, Pagliuca 2014). Representative bright field and fluorescent images of cellular aggregates are shown at day 23 of differentiation. Results shown are from INS^GFP/W reporter line.
Quantification of the percentage of INSULIN:GFP+ cells measured by flow cytometric analysis at day 23 of differentiation, arising from cells treated or untreated with different compounds: XAV939, IWR-1, MN64, WIKI4. Cells were treated using NE (−) or NE in combination with different compounds: XAV939 1.5 uM, IWR-1 3 uM, MN64 3 uM, WIKI4 9 uM. Results shown are from INS^GFP/W reporter line, Error bars represent standard deviation. n=4.
In this report we present a new method to generate PDX1+/NKX6.1+ endoderm from a variety of hPSC lines. […] (See FIGS. 1-5).

[3] = test system: INS^GFP/W reporter line; test: Insulin transcript by QPCR normalized to TBP; details: day 23; WIKI4 9 uM compared to IWR-1 3 uM, MN64 3 uM, XAV939 1.5 uM
Experimental: Cells treated with different tankyrase inhibitors express different amounts of insulin transcript, as measured by QPCR. Shown is the relative expression of insulin transcript normalized to the housekeeping gene TBP (TATA Binding Protein) at day 23 of differentiation, where pancreatic progenitor cells were generated by treating cells with or without XAV939, IWR-1, MN64, WIKI4 (XAV939 1.5 uM, IWR-1 3 uM, MN64 3 uM, WIKI4 9 uM). Adult pancreas is used as positive control. Results shown are from INS^GFP/W reporter line. Error bars represent standard deviation. n=3.

## CS(=O)(=O)c1ccc(-c2nnc(/C=C/c3nnc(-c4ccc(C#N)cc4)o3)n2-c2ccccc2Cl)nc1 [G007-LK]
[1]
  percentage of C-Peptide+/NKX6-1+ beta-like cells: able to generate a population of C-peptide+/NKX6.1+ insulin-expressing beta-like cells

## O=C(Nc1cccc2cccnc12)c1ccc(N2C(=O)[C@@H]3[C@H](C2=O)[C@@H]2C=C[C@H]3C2)cc1 [IWR-1]
[2]
  percentage of INSULIN:GFP+ cells: higher percentages of INSGFP+ cells; also recorded: higher percentages of Insulin:GFP+ cells

## COc1ccc(C2(CNC(=O)c3ccc(NC(=O)c4ccco4)cc3)CCOCC2)cc1 [JW55]
[1]
  percentage of C-Peptide+/NKX6-1+ beta-like cells: able to generate a population of C-peptide+/NKX6.1+ insulin-expressing beta-like cells

## COc1ccc(-n2c(SCc3nc(-c4ccc(C)cc4)no3)nnc2-c2ccncc2)cc1 [JW74]
[1]
  percentage of C-Peptide+/NKX6-1+ beta-like cells: able to generate a population of C-peptide+/NKX6.1+ insulin-expressing beta-like cells

## COc1ccc(-n2c(SCCCN3C(=O)c4cccc5cccc(c45)C3=O)nnc2-c2ccncc2)cc1 [WIKI4]
[3]
  relative expression of insulin transcript (INS mRNA) normalized to TBP: higher levels of INS mRNA
[1]
  percentage of C-Peptide+/NKX6-1+ beta-like cells: high percentages of C-Peptide+/NKX6-1+ insulin expressing beta-like cells; also recorded: able to generate a population of C-peptide+/NKX6.1+ insulin-expressing beta-like cells
[2]
  percentage of INSULIN:GFP+ cells: higher percentages of INSGFP+ cells; also recorded: higher percentages of Insulin:GFP+ cells
